We go through 2 compounds from PMC13293952 (Cell Reports Medicine, 2026).

One test concerns CFA mice. Description: CFA model of inflammatory pain, von Frey paw withdrawal threshold. Type of test: in vivo, mouse. The note with it: 3 mg/kg s.c. on days 11 and 40 after CFA, AAV8-tdTomato controls.
The target in another test is PICK1 (Rattus norvegicus, UniProt Q9EP80). Description: FPLC. Conditions: FPLC Superdex 200, PICK1 40 µM, molar ratio 1:4 or 1:2, >=20 h at 4°C, A280. Type of test: biochemical.
Sequence of PICK1 (Q9EP80 whole entry): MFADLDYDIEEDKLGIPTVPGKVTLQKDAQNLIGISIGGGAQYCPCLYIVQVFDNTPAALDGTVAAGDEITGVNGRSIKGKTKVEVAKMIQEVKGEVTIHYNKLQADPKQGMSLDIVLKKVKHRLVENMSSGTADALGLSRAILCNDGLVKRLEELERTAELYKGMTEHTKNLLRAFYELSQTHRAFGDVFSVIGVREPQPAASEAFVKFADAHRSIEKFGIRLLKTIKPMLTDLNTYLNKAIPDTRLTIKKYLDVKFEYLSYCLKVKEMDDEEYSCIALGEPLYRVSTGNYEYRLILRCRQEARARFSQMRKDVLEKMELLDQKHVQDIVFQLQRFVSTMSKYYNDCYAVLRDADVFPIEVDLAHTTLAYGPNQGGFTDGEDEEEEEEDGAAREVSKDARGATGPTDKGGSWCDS

With `O=C1CC[C@@]2(O)[C@H]3Cc4ccc(O)c5c4[C@@]2(CCN3CC2CC2)[C@H]1O5` [NTX, naltrexone], the reinstatement of allodynia entry with CFA mice is given as “selectively reinstated allodynia in this group”.
“biotin-ahx-GEELLEDIRKFNEMRKNMDQLKEKINSVLSIRQGGGGS-HWLKV [SSO10a-C5]”: the PICK1 oligomerization result on PICK1 is given as “drove PICK1 oligomerization”.
